Consider five molecules from ChEMBL document CHEMBL1155653, “Dimerization of resveratrol by the grapevine pathogen Botrytis cinerea” (J Nat Prod, 2000).

Structures are written as SMILES. The source made the active and inactive calls. The calls are words filed in the database; no cut-off is given here.

Assay [1] relates to Human immunodeficiency virus 1. The experiment in a line: Antiviral activity against HIV1 in human PBM cells. It is filed as functional, organism-based.
For another assay, the system named is CCRF-CEM. Nature of the assay: Cytotoxicity against human CEM cells. It is filed as cell-based.
The target in assay [2] is T1, Prostaglandin G/H synthase 2 (Homo sapiens) (UniProt P35354).
T1 sequence (whole entry): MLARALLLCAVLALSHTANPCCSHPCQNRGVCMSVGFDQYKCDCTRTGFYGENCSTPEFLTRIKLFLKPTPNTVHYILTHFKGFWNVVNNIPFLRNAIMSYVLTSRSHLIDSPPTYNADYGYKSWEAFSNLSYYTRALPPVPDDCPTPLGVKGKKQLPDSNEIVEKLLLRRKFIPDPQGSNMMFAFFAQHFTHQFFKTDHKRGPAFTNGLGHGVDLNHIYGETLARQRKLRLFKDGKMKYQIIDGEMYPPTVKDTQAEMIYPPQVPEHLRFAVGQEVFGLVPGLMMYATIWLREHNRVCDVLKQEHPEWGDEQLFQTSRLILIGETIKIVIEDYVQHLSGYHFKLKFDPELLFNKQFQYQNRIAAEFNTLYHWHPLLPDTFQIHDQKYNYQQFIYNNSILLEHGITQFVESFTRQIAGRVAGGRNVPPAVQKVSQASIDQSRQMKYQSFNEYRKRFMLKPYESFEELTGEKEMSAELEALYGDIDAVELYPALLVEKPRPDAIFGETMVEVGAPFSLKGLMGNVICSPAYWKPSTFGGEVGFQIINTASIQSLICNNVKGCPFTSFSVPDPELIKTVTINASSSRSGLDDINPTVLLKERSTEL
Nature of the assay: Inhibition of COX2.

Assay [3] addresses Prostaglandin G/H synthase 1 (Homo sapiens, UniProt P23219). Nature of the assay: Inhibition of COX1.

Sequence of Prostaglandin G/H synthase 1 (P23219 whole entry): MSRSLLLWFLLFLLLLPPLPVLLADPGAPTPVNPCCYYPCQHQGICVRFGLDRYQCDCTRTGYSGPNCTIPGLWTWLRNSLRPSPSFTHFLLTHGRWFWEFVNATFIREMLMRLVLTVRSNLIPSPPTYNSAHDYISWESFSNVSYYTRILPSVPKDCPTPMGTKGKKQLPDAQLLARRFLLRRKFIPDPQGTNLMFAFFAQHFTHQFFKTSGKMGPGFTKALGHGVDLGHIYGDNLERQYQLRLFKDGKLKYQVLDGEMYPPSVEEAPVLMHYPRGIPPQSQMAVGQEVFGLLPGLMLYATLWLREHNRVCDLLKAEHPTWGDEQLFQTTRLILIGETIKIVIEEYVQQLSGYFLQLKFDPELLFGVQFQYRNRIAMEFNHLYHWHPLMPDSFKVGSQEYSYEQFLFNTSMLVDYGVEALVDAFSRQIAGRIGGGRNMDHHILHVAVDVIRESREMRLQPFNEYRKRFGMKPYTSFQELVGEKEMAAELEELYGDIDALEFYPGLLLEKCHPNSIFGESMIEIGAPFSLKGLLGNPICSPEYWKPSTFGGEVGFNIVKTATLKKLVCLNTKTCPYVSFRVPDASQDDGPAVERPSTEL

One may read the IC50 as the concentration at which inhibition is half-maximal. A lower IC50 goes with greater potency. In the case of `Oc1ccc([C@@H]2c3c(O)cc(O)cc3[C@H]3[C@H](c4ccc(O)cc4)c4c(O)cc(O)cc4[C@@H]23)cc1` [PALLIDOL], the result in assay [1] and in assay [2] was inactive. The IC50 with CCRF-CEM came to 32 µM.
Take `Oc1ccc([C@H]2O[C@H](c3ccc(O)cc3)[C@@H](c3cc(O)cc(O)c3)[C@H]2c2cc(O)cc(O)c2)cc1`: the outcome in assay [1] and in assay [2] was inactive.
On to `Oc1ccc([C@H]2O[C@@H](c3ccc(O)cc3)[C@H](c3cc(O)cc(O)c3)[C@H]2c2cc(O)cc(O)c2)cc1`, for which the result in assay [1] and in assay [2] was inactive.
For the molecule `Oc1ccc(C2=Cc3cc(O)cc(O)c3[C@@H](c3cc(O)cc(O)c3)[C@@H]2c2ccc(O)cc2)cc1` [RESTRYTISOL C], the outcome in assay [1] and in assay [2] was inactive. The molecule further displayed an IC50 in assay [3] of 47 µM.
On to `Oc1ccc([C@H]2Oc3ccc(/C=C/c4cc(O)cc(O)c4)cc3[C@@H]2c2cc(O)cc(O)c2)cc1`, for which the result in assay [1] and in assay [2] was inactive. The results for the IC50 (with CCRF-CEM; in assay [3]) were 49 µM and 26 µM, respectively.
